Data on 13 molecules can be found in ChEMBL document CHEMBL3112549 (Bioorg Med Chem Lett, 2014).

Assay [1] deals with Mast/stem cell growth factor receptor Kit (Homo sapiens, UniProt P10721). In words: Inhibition of c-KIT tyrosine kinase (unknown origin) after 30 mins by HTRF method. In general terms: TR-FRET usually uses a lanthanide donor and a delayed reading to cut background.
Assay [2] has as its target Vascular endothelial growth factor receptor 2 (Homo sapiens, UniProt P35968). In words: Inhibition of VEGFR-2 tyrosine kinase (unknown origin) after 30 mins by HTRF method.

SMILES strings stand for the structures.

Sequence of Vascular endothelial growth factor receptor 2 (P35968 whole entry): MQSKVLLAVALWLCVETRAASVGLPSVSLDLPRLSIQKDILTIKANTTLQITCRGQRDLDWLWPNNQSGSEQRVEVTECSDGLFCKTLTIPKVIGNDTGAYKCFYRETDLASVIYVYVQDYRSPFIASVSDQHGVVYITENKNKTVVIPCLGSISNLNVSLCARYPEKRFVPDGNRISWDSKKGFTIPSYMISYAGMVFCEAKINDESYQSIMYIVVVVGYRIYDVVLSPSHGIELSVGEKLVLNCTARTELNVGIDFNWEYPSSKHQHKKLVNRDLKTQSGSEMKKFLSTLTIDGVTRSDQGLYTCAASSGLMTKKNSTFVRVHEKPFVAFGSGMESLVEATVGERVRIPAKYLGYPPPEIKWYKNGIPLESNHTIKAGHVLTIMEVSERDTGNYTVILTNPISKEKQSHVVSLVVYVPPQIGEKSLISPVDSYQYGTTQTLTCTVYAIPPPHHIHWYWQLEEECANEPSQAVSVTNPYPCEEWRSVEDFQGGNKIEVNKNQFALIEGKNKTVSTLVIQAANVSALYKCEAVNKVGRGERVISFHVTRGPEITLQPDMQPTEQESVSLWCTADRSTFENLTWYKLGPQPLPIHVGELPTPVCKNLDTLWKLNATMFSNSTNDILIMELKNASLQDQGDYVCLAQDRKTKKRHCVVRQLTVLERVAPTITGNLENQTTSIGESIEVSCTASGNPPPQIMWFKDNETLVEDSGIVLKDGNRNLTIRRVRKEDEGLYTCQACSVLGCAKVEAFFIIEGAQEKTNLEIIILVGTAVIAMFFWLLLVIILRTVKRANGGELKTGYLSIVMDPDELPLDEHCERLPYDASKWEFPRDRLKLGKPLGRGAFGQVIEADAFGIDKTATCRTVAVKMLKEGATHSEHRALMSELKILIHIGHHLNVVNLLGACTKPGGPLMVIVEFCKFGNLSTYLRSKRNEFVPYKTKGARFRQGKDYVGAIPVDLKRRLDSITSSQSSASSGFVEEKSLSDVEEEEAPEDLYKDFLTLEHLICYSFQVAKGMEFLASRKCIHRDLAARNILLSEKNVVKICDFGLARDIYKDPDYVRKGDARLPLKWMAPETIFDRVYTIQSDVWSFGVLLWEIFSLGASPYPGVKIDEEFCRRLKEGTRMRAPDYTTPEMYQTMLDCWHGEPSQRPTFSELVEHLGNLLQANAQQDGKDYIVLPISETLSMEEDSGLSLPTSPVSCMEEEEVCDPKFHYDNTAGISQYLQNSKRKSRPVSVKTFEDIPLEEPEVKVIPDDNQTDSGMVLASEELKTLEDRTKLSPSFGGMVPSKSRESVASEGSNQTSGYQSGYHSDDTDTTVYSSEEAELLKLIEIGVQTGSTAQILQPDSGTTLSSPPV
Sequence of Mast/stem cell growth factor receptor Kit (P10721 whole entry): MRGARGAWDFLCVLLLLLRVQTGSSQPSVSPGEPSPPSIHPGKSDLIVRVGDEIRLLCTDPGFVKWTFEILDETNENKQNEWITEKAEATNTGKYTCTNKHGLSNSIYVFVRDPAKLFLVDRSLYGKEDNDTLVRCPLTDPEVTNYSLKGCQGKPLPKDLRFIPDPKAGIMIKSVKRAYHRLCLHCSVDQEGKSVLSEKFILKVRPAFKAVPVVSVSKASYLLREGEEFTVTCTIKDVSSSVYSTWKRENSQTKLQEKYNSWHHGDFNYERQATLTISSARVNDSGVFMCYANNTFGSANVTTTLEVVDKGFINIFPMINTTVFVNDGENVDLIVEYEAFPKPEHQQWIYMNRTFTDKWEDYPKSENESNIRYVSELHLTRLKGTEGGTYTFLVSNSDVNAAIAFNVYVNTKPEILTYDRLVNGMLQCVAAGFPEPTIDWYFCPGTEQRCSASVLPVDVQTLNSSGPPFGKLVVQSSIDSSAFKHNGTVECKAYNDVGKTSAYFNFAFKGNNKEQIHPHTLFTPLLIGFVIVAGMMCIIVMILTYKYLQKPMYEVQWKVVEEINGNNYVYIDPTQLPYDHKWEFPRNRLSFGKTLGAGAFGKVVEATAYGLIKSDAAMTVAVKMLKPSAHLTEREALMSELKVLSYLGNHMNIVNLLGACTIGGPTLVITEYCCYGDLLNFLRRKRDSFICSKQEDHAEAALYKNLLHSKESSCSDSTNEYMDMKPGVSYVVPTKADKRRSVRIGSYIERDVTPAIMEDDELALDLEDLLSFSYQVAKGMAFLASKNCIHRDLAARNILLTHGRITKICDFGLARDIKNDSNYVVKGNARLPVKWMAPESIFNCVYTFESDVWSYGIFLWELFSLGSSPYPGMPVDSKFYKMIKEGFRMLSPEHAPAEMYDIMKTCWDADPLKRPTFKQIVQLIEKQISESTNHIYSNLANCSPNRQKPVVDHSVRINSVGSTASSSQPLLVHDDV

Take `Cc1c2ccc(N(C)c3ccnc(Nc4cccc(F)c4)n3)cc2nn1C`: the IC50 came to 102 nM in assay [1] and 78 nM in assay [2].

Consider `Cc1c2ccc(N(C)c3ccnc(Nc4cccc(Br)c4)n3)cc2nn1C`, for which the IC50 in assay [1] is 98 nM; in assay [2], 64 nM.

Consider `Cc1c2ccc(N(C)c3ccnc(Nc4cccc(Cl)c4)n3)cc2nn1C`, for which the figures for the IC50 in assay [1] and in assay [2] were 80 nM and 25 nM, respectively.

With `COc1cccc(Nc2nccc(N(C)c3ccc4c(C)n(C)nc4c3)n2)c1`, the figures for the IC50 in assay [1] and in assay [2] were 72 nM and 38 nM, respectively.

As for `Cc1cccc(Nc2nccc(N(C)c3ccc4c(C)n(C)nc4c3)n2)c1`, the concentration for half-maximal inhibition (IC50) in assay [1] is 87 nM; in assay [2], 42 nM.

For `Cc1cc(C)cc(Nc2nccc(N(C)c3ccc4c(C)n(C)nc4c3)n2)c1`, the IC50 came out at 40 nM in assay [1] and 21 nM in assay [2].

In the case of `CSc1ccc(Nc2nccc(N(C)c3ccc4c(C)n(C)nc4c3)n2)cc1`, the half-inhibitory concentration (IC50) was determined as 71 nM in assay [1] and 51 nM in assay [2].

Consider `Cc1c2ccc(N(C)c3ccnc(Nc4ccc(OC(F)(F)F)cc4)n3)cc2nn1C`, for which the IC50 in assay [1] was 89 nM; in assay [2], 72 nM.

With `CN(c1ccc2cn(C)nc2c1)c1ccnc(Nc2cccc(F)c2)n1`, the IC50 turned out to be 96 nM in assay [1] and 93 nM in assay [2].

Regarding `CN(c1ccc2cn(C)nc2c1)c1ccnc(Nc2cccc(Cl)c2)n1`, the half-maximal inhibitory concentration (IC50) in assay [1] and in assay [2] was 72 nM throughout.

Regarding `COc1cccc(Nc2nccc(N(C)c3ccc4cn(C)nc4c3)n2)c1`, the IC50 in assay [1] worked out at 77 nM; in assay [2] it was 108 nM.

Turning to `CN(c1ccc2cn(C)nc2c1)c1ccnc(Nc2ccc(OC(F)(F)F)cc2)n1`, the 50% inhibitory concentration (IC50) was found to be 83 nM in assay [1] and 12 nM in assay [2].

With `Cc1cc(C)cc(Nc2nccc(N(C)c3ccc4cn(C)nc4c3)n2)c1`, the half-inhibitory concentration (IC50) in assay [1] came out at 61 nM; in assay [2], 28 nM.

In general, IC50 refers to the concentration that inhibits the measured activity by half. A high value points to weaker potency.
